# Measurements published in paper PMC6440464 (PeerJ, 2019).
# “And” between values parts separate entries of the source, which are not always exact repeats. Equal entries are not always repeated.
# Test: Stability of the analytes in rat plasma QC samples at different storage conditions
# Type: in vitro ADME
# Conditions: for Post-preparation stability (4℃ for 24 h) Measured Conc.: extracted plasma samples in auto sampler rack; for Post-preparation stability (4℃ for 24 h) Measured Conc. / Free-thaw stability (3 free-thaw cycles) Measured Conc. / Long-term stability (-80℃ for 15 d) Measured Conc. / Short-term stability (25℃ for 12 h) Measured Conc.: n=5; for Free-thaw stability, Test Conc., AV / Free-thaw stability, Test Conc. / Post-preparation stability, Test Conc., AV / Post-preparation stability, Test Conc. / Short-term stability, Test Conc., AV / Short-term stability, Test Conc. / Long-term stability, Test Conc., AV / Long-term stability, Test Conc.: plasma; for Free-thaw stability, Test Conc., AV / Free-thaw stability, Test Conc.: 3 free-thaw cycles; for Free-thaw stability, Test Conc., AV / Post-preparation stability, Test Conc., AV / Short-term stability, Test Conc., AV / Long-term stability, Test Conc., AV: AV of 5 replicates; for Free-thaw stability, Test Conc. / Post-preparation stability, Test Conc. / Short-term stability, Test Conc. / Long-term stability, Test Conc.: single replicates NO.1-NO.5, listed as Isoquercitrin (IQ); for Post-preparation stability, Test Conc., AV / Post-preparation stability, Test Conc.: 4℃ for 24 h; for Short-term stability, Test Conc., AV / Short-term stability, Test Conc.: 25℃ for 12 h; for Long-term stability, Test Conc., AV / Long-term stability, Test Conc.: -80℃ for 15 d; for Free-thaw stability (3 free-thaw cycles) Measured Conc. / Long-term stability (-80℃ for 15 d) Measured Conc. / Short-term stability (25℃ for 12 h) Measured Conc.: rat plasma
# Experimental: The stabilities of Qr, IQ, and QG in plasma were assessed by analyzing QC samples at different storage conditions. The stabilities of three flavonoids in plasma were studied by analyzing three concentration levels of QC samples (n = 5) at room temperature (25 °C) for 12 h, at long-term storage (−80 °C for 15 days), after three freeze (−80 °C) and thaw (room temperature) cycles, and at auto sampler rack storage (4 °C for 24 h).
# [1] = high QC, nominal 8400.0 (Qr), 976.0 (IQ), 10000.0 (QG) ng/mL
# [2] = low QC, nominal 65.6 (Qr), 48.8 (IQ), 100.0 (QG) ng/mL
# [3] = medium QC, nominal 525.0 (Qr), 244.0 (IQ), 1000.0 (QG) ng/mL
structure (smiles),measurement,setting,value
"O=c1c(O[C@@H]2O[C@H](CO)[C@@H](O)[C@H](O)[C@H]2O)c(-c2ccc(O)c(O)c2)oc2cc(O)cc(O)c12 [IQ, Isoquercitrin]",Post-preparation stability (4℃ for 24 h) Measured Conc.,[1],937.6 ± 55.4 ng/mL
same,Post-preparation stability (4℃ for 24 h) Measured Conc.,[2],45.3 ± 1.4 ng/mL
same,Post-preparation stability (4℃ for 24 h) Measured Conc.,,255.6 ± 16.0 ng/mL
same,"Free-thaw stability, Test Conc., AV",nominal Conc. 48.80 ng/mL,50.35 ng/mL
same,"Free-thaw stability, Test Conc.",nominal Conc. 48.80 ng/mL,49.95 ng/mL and 49.90 ng/mL and 50.70 ng/mL and 48.08 ng/mL and 53.12 ng/mL
same,"Free-thaw stability, Test Conc., AV",nominal Conc. 244.00 ng/mL,242.47 ng/mL
same,"Free-thaw stability, Test Conc.",nominal Conc. 244.00 ng/mL,230.75 ng/mL and 211.89 ng/mL and 256.83 ng/mL and 252.00 ng/mL and 260.86 ng/mL
same,"Free-thaw stability, Test Conc., AV",nominal Conc. 976.00 ng/mL,1028.98 ng/mL
same,"Free-thaw stability, Test Conc.",nominal Conc. 976.00 ng/mL,934.23 ng/mL and 1056.62 ng/mL and 1064.04 ng/mL and 1091.46 ng/mL and 998.55 ng/mL
same,"Post-preparation stability, Test Conc., AV",nominal Conc. 48.80 ng/mL,45.28 ng/mL
same,"Post-preparation stability, Test Conc.",nominal Conc. 48.80 ng/mL,45.29 ng/mL and 43.89 ng/mL and 47.57 ng/mL and 44.33 ng/mL and 45.34 ng/mL
same,"Post-preparation stability, Test Conc., AV",nominal Conc. 244.00 ng/mL,255.64 ng/mL
same,"Post-preparation stability, Test Conc.",nominal Conc. 244.00 ng/mL,246.59 ng/mL and 233.24 ng/mL and 257.98 ng/mL and 268.81 ng/mL and 271.60 ng/mL
same,"Post-preparation stability, Test Conc., AV",nominal Conc. 976.00 ng/mL,937.62 ng/mL
same,"Post-preparation stability, Test Conc.",nominal Conc. 976.00 ng/mL,857.22 ng/mL and 1007.33 ng/mL and 922.61 ng/mL and 936.47 ng/mL and 964.48 ng/mL
same,"Short-term stability, Test Conc., AV",nominal Conc. 48.80 ng/mL,51.25 ng/mL
same,"Short-term stability, Test Conc.",nominal Conc. 48.80 ng/mL,51.42 ng/mL and 50.11 ng/mL and 53.70 ng/mL and 49.73 ng/mL and 51.28 ng/mL
same,"Short-term stability, Test Conc., AV",nominal Conc. 244.00 ng/mL,228.97 ng/mL
same,"Short-term stability, Test Conc.",nominal Conc. 244.00 ng/mL,224.99 ng/mL and 229.24 ng/mL and 227.58 ng/mL and 250.98 ng/mL and 212.08 ng/mL
same,"Short-term stability, Test Conc., AV",nominal Conc. 976.00 ng/mL,902.68 ng/mL
same,"Short-term stability, Test Conc.",nominal Conc. 976.00 ng/mL,885.52 ng/mL and 865.13 ng/mL and 936.37 ng/mL and 947.50 ng/mL and 878.89 ng/mL
same,"Long-term stability, Test Conc., AV",nominal Conc. 48.80 ng/mL,43.53 ng/mL
same,"Long-term stability, Test Conc.",nominal Conc. 48.80 ng/mL,40.64 ng/mL and 40.98 ng/mL and 46.59 ng/mL and 45.84 ng/mL and 43.59 ng/mL
same,"Long-term stability, Test Conc., AV",nominal Conc. 244.00 ng/mL,226.97 ng/mL
same,"Long-term stability, Test Conc.",nominal Conc. 244.00 ng/mL,232.85 ng/mL and 226.55 ng/mL and 237.44 ng/mL and 224.60 ng/mL and 213.40 ng/mL
same,"Long-term stability, Test Conc., AV",nominal Conc. 976.00 ng/mL,947.77 ng/mL
same,"Long-term stability, Test Conc.",nominal Conc. 976.00 ng/mL,1047.44 ng/mL and 988.88 ng/mL and 924.76 ng/mL and 931.40 ng/mL and 846.39 ng/mL
same,Free-thaw stability (3 free-thaw cycles) Measured Conc.,[1],1029.0 ± 62.9 ng/mL
same,Long-term stability (-80℃ for 15 d) Measured Conc.,[1],947.8 ± 75.3 ng/mL
same,Short-term stability (25℃ for 12 h) Measured Conc.,[1],902.7 ± 36.8 ng/mL
same,Free-thaw stability (3 free-thaw cycles) Measured Conc.,[2],50.4 ± 1.8 ng/mL
same,Long-term stability (-80℃ for 15 d) Measured Conc.,[2],43.5 ± 2.7 ng/mL
same,Short-term stability (25℃ for 12 h) Measured Conc.,[2],51.3 ± 1.6 ng/mL
same,Free-thaw stability (3 free-thaw cycles) Measured Conc.,[3],242.5 ± 20.7 ng/mL
same,Long-term stability (-80℃ for 15 d) Measured Conc.,[3],227.0 ± 9.1 ng/mL
same,Short-term stability (25℃ for 12 h) Measured Conc.,[3],229.0 ± 14.0 ng/mL
